Each structure is given as a SMILES string. Where “and” joins values, the source holds several entries; their conditions need not be identical. Equal entries are not always repeated.

Type in all cases: cell-based, Cryptosporidium parvum
For assay [1], the system named is C. parvum DMC1 expression. Nature of the assay: Sexual differentiation assay (DMC1 expression). As to conditions: for 48 - 72 h DMC1 (asexual to sexual conversion): Mean % DMC1 inhibition (normalized to host nuclei): replicates 1-3 in separate columns; for Asexual to sexual differentiation: Mean % DMC1 inhibition (normalized to host nuclei), Average: average of replicates; for Asexual to sexual differentiation: Mean % DMC1 inhibition (normalized to host nuclei), Replicate 1a: single replicate 1; for Asexual to sexual differentiation: Mean % DMC1 inhibition (normalized to host nuclei), Replicate 2a: single replicate 2. A digest of the protocol: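 High-content microscopy of infected cells fixed at set times post-infection, stained with anti-DMC1 mAb 1H10G7, Vicia villosa lectin and Hoechst; lectin-positive parasites counted, then DMC1-positive.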

Assay [2] relates to C. parvum. The assay is described as follows: DNA replication assay (EdU incorporation). The note with it: compound at EC90; for DNA Synthesis Assay: Mean % Inhibition of EdU-labeling (normalized to parasite numbers), Average: average of replicates; for DNA Synthesis Assay: Mean % Inhibition of EdU-labeling (normalized to parasite numbers), Replicate 1: single replicate 1; for DNA Synthesis Assay: Mean % Inhibition of EdU-labeling (normalized to parasite numbers), Replicate 2: single replicate 2; for DNA Synthesis Assay: Mean % Inhibition of EdU-labeling (normalized to parasite numbers), Replicate 3: single replicate 3; for DNA Synthesis Assay: Mean % Inhibition of EdU-labeling (normalized to parasite numbers), Replicate 4: single replicate 4; for DNA Synthesis Assay: Mean % Inhibition of EdU-labeling (normalized to parasite numbers), Replicate 5: single replicate 5.

Assay [3] deals with C. parvum. As to conditions: compound at EC90; for Invasion Assay: Mean % Inhibition (parasites), Average: average of replicates; for Invasion Assay: Mean % Inhibition (parasites), Replicate 1a: single biological replicate 1; for Invasion Assay: Mean % Inhibition (parasites), Replicate 2a: single biological replicate 2.
[4] abbreviates: compound at asexual EC90, 48-72 h.
The mark [5] stands for this setting: yes/no grouping by phenotypic assay result.

As a reminder, the EC50 is the concentration that produces a half-maximal response. As to `O=C(Nc1ccc(Cl)cc1)N1CCN(c2ccc3nncn3n2)CC1` [D-1], the “48 - 72 h DMC1 (asexual to sexual conversion): Mean % DMC1 inhibition (normalized to host nuclei)” value was -9.83% and -22.30% and 31.77% in assay [1] (D-1 at log conc (µM) 0.16); 54.19% and 44.15% and 54.54% in assay [1] (D-1 at log conc (µM) 0.46); 71.57% and 53.72% and 69.21% in assay [1] (D-1 at log conc (µM) 0.58); 84.32% in assay [1] (D-1 at log conc (µM) 0.71); 94.93% and 94.90% and 95.67% in assay [1] (D-1 at log conc (µM) 1.18); 95.75% and 98.23% and 93.36% in assay [1] (D-1 at log conc (µM) 1.66). Moreover, the “48 - 72 h DMC1 (asexual to sexual conversion): Mean % DMC1 inhibition (normalized to host nuclei)” value in assay [1] (D-1 at log conc (µM) -0.14) was 2.15% and -53.03% and -30.95%; in assay [1] (D-1 at log conc (µM) -0.62), -16.25% and -49.91% and -40.61%; in assay [1] (D-1 at log conc (µM) -1.10) it was -18.85% and -40.36% and -14.22%. Further, in assay [1] (compound added at 48 h, read at 72 h, result in words), the “activity in the DMC1 (sexual development) assay relative to asexual assay” value is “equal potency before and after 48 h”. Besides, the “Asexual to sexual differentiation: Mean % DMC1 inhibition (normalized to host nuclei), Average” value in assay [1] (setting [4]) was 83.01%. For the same molecule, the “Asexual to sexual differentiation: Mean % DMC1 inhibition (normalized to host nuclei), Replicate 1a” value in assay [1] (setting [4]) came to 87.55%. Besides, the “Asexual to sexual differentiation: Mean % DMC1 inhibition (normalized to host nuclei), Replicate 2a” value in assay [1] (setting [4]) is reported as 90.87%. Besides, the “Asexual to sexual differentiation: Mean % DMC1 inhibition (normalized to host nuclei), Replicate 3a” value in assay [1] (compound at asexual EC90, 48-72 h, single replicate 3) is 72.73%. Moreover, in assay [1] (compound at asexual EC90, 48-72 h, single replicate 4), the “Asexual to sexual differentiation: Mean % DMC1 inhibition (normalized to host nuclei), Replicate 4a” value came to 66.31%. Moreover, the “Asexual to sexual differentiation: Mean % DMC1 inhibition (normalized to host nuclei), Replicate 5a” value in assay [1] (compound at asexual EC90, 48-72 h, single replicate 5) is 89.27%. In addition, the “Asexual to sexual differentiation: Mean % DMC1 inhibition (normalized to host nuclei), Replicate 6a” value in assay [1] (compound at asexual EC90, 48-72 h, single replicate 6) stood at 91.32%. For the same molecule, the EC50 in assay [1] (inhibition of DMC1 expression from 48 to 72 h, range in brackets, read-out: 48 − 72 h DMC1 (asexual to sexual conversion): EC50) was determined as 2400 nM. In assay [2], the “DNA Synthesis Assay: Mean % Inhibition of EdU-labeling (normalized to parasite numbers), Average” value is given as 23.98%. Also, in assay [2], the “DNA Synthesis Assay: Mean % Inhibition of EdU-labeling (normalized to parasite numbers), Replicate 1” value stood at 20.68%. Further, the “DNA Synthesis Assay: Mean % Inhibition of EdU-labeling (normalized to parasite numbers), Replicate 2” value in assay [2] stood at 7.95%. In addition, in assay [2], the “DNA Synthesis Assay: Mean % Inhibition of EdU-labeling (normalized to parasite numbers), Replicate 3” value is 36.52%. In addition, in assay [2], the “DNA Synthesis Assay: Mean % Inhibition of EdU-labeling (normalized to parasite numbers), Replicate 4” value is 30.78%. For the same molecule, the “Invasion Assay: Mean % Inhibition (parasites), Average” value in assay [3] is given as -25.16%. Also, the “Invasion Assay: Mean % Inhibition (parasites), Replicate 1a” value in assay [3] was -22%. In addition, the “Invasion Assay: Mean % Inhibition (parasites), Replicate 2a” value in assay [3] was -29%.
As to `Oc1c(C(Nc2ccccn2)c2cccc(Oc3ccccc3)c2)ccc2cccnc12` (stereo not drawn) [A-2], in assay [1] (setting [4]), the “Asexual to sexual differentiation: Mean % DMC1 inhibition (normalized to host nuclei), Average” value is on record as 36.33%; the “Asexual to sexual differentiation: Mean % DMC1 inhibition (normalized to host nuclei), Replicate 1a” value is listed as 56.25%; the “Asexual to sexual differentiation: Mean % DMC1 inhibition (normalized to host nuclei), Replicate 2a” value was found to be 16.42%. In addition, the “DNA synthesis (mean % inhibition)” value in assay [2] (EdU added 9 h post-infection for 2 h) stood at 100.00%. Besides, in assay [2], the “DNA Synthesis Assay: Mean % Inhibition of EdU-labeling (normalized to parasite numbers), Average” value was 100.00%; the “DNA Synthesis Assay: Mean % Inhibition of EdU-labeling (normalized to parasite numbers), Replicate 1” value was determined as 100%; the “DNA Synthesis Assay: Mean % Inhibition of EdU-labeling (normalized to parasite numbers), Replicate 2” value turned out to be 100%. Moreover, the DNA synthesis entry in assay [2] (setting [5]) was “yes”. For the same molecule, in assay [3], the “Invasion Assay: Mean % Inhibition (parasites), Average” value is -15.19%; the “Invasion Assay: Mean % Inhibition (parasites), Replicate 1a” value is reported as -13%; the “Invasion Assay: Mean % Inhibition (parasites), Replicate 2a” value is listed as -17%. In addition, the Sporozoite invasion entry in assay [3] (setting [5]) is reported as “no”.
`CC(=NOCCN)c1cccc(C(C)(C)NC(=O)Nc2ccc(Cl)c(C(F)(F)F)c2)c1` [P257]: in assay [1] (setting [4]), the “Asexual to sexual differentiation: Mean % DMC1 inhibition (normalized to host nuclei), Average” value was 70.52%; the “Asexual to sexual differentiation: Mean % DMC1 inhibition (normalized to host nuclei), Replicate 1a” value came to 67.08%; the “Asexual to sexual differentiation: Mean % DMC1 inhibition (normalized to host nuclei), Replicate 2a” value turned out to be 73.96%. In assay [2], the “DNA Synthesis Assay: Mean % Inhibition of EdU-labeling (normalized to parasite numbers), Average” value was 97.76%; the “DNA Synthesis Assay: Mean % Inhibition of EdU-labeling (normalized to parasite numbers), Replicate 1” value stood at 97.49%; the “DNA Synthesis Assay: Mean % Inhibition of EdU-labeling (normalized to parasite numbers), Replicate 2” value is listed as 98.03%. Further, in assay [3], the “Invasion Assay: Mean % Inhibition (parasites), Average” value is 9.88%; the “Invasion Assay: Mean % Inhibition (parasites), Replicate 1a” value came out at 4%; the “Invasion Assay: Mean % Inhibition (parasites), Replicate 2a” value is reported as 16%.
As for `O=C(Nc1nc(-c2ccccn2)cs1)c1ccccc1Br` [MMV665909], in assay [1] (setting [4]), the “Asexual to sexual differentiation: Mean % DMC1 inhibition (normalized to host nuclei), Average” value is listed as 53.05%; the “Asexual to sexual differentiation: Mean % DMC1 inhibition (normalized to host nuclei), Replicate 1a” value came out at 56.13%; the “Asexual to sexual differentiation: Mean % DMC1 inhibition (normalized to host nuclei), Replicate 2a” value worked out at 49.96%. Moreover, in assay [2], the “DNA Synthesis Assay: Mean % Inhibition of EdU-labeling (normalized to parasite numbers), Average” value amounted to 90.80%; the “DNA Synthesis Assay: Mean % Inhibition of EdU-labeling (normalized to parasite numbers), Replicate 1” value is given as 100.00%; the “DNA Synthesis Assay: Mean % Inhibition of EdU-labeling (normalized to parasite numbers), Replicate 2” value stood at 100.00%; the “DNA Synthesis Assay: Mean % Inhibition of EdU-labeling (normalized to parasite numbers), Replicate 3” value was 80.23%. For the same molecule, in assay [2], the “DNA Synthesis Assay: Mean % Inhibition of EdU-labeling (normalized to parasite numbers), Replicate 4” value was 80.99% and the “DNA Synthesis Assay: Mean % Inhibition of EdU-labeling (normalized to parasite numbers), Replicate 5” value is on record as 92.80%. Further, in assay [3], the “Invasion Assay: Mean % Inhibition (parasites), Average” value is reported as -12.01%; the “Invasion Assay: Mean % Inhibition (parasites), Replicate 1a” value was -8.54%; the “Invasion Assay: Mean % Inhibition (parasites), Replicate 2a” value was -15%.
As to `CC(C)/N=c1\cc2n(-c3ccc(Cl)cc3)c3ccccc3nc-2cc1Nc1ccc(Cl)cc1` [Clofazimine], in assay [1] (setting [4]), the “Asexual to sexual differentiation: Mean % DMC1 inhibition (normalized to host nuclei), Average” value was 89.18%; the “Asexual to sexual differentiation: Mean % DMC1 inhibition (normalized to host nuclei), Replicate 1a” value is 91.44%; the “Asexual to sexual differentiation: Mean % DMC1 inhibition (normalized to host nuclei), Replicate 2a” value turned out to be 86.93%. In addition, in assay [2], the “DNA Synthesis Assay: Mean % Inhibition of EdU-labeling (normalized to parasite numbers), Average” value was 88.58%; the “DNA Synthesis Assay: Mean % Inhibition of EdU-labeling (normalized to parasite numbers), Replicate 1” value was found to be 99.92%; the “DNA Synthesis Assay: Mean % Inhibition of EdU-labeling (normalized to parasite numbers), Replicate 2” value is given as 100.00%; the “DNA Synthesis Assay: Mean % Inhibition of EdU-labeling (normalized to parasite numbers), Replicate 3” value turned out to be 87.22%. For the same molecule, in assay [2], the “DNA Synthesis Assay: Mean % Inhibition of EdU-labeling (normalized to parasite numbers), Replicate 4” value is 73.51% and the “DNA Synthesis Assay: Mean % Inhibition of EdU-labeling (normalized to parasite numbers), Replicate 5” value amounted to 82.28%. Besides, in assay [3], the “Invasion Assay: Mean % Inhibition (parasites), Average” value was 66.45%; the “Invasion Assay: Mean % Inhibition (parasites), Replicate 1a” value came to 65%; the “Invasion Assay: Mean % Inhibition (parasites), Replicate 2a” value was 68%.
For the molecule `CCC(C)n1ncn(-c2ccc(N3CCN(c4ccc(OCC5COC(Cn6cncn6)(c6ccc(Cl)cc6Cl)O5)cc4)CC3)cc2)c1=O` (stereo not drawn) [Itraconazole], in assay [1] (setting [4]), the “Asexual to sexual differentiation: Mean % DMC1 inhibition (normalized to host nuclei), Average” value is listed as 63.93%; the “Asexual to sexual differentiation: Mean % DMC1 inhibition (normalized to host nuclei), Replicate 1a” value is listed as 87.85%; the “Asexual to sexual differentiation: Mean % DMC1 inhibition (normalized to host nuclei), Replicate 2a” value amounted to 40.00%. In addition, in assay [2], the “DNA Synthesis Assay: Mean % Inhibition of EdU-labeling (normalized to parasite numbers), Average” value is on record as -4.89%; the “DNA Synthesis Assay: Mean % Inhibition of EdU-labeling (normalized to parasite numbers), Replicate 1” value came out at 6.01%; the “DNA Synthesis Assay: Mean % Inhibition of EdU-labeling (normalized to parasite numbers), Replicate 2” value is recorded as -18.49%; the “DNA Synthesis Assay: Mean % Inhibition of EdU-labeling (normalized to parasite numbers), Replicate 3” value was -2.19%. Besides, in assay [3], the “Invasion Assay: Mean % Inhibition (parasites), Average” value is reported as -29.72%; the “Invasion Assay: Mean % Inhibition (parasites), Replicate 1a” value is -31%; the “Invasion Assay: Mean % Inhibition (parasites), Replicate 2a” value is given as -28%.

The values above are taken from publication PMC6478823, “A suite of phenotypic assays to ensure pipeline diversity when prioritizing drug-like Cryptosporidium growth inhibitors” (Nature Communications, 2019).
